Holding throughout (assay): growth of human tumour cells (NCI), 48 h
In experiment [1] the test system is IGROV1 ovarian.
Experiment [2] concerns M14 melanoma.
In experiment [3] the test system is NCI-H226 lung.
The test system of experiment [4] is NCI-H460 lung.
Experiment [5] deals with OVCAR-5 ovarian.
For experiment [6], the system named is SF-268 CNS.
In experiment [7] the test system is SF-295 CNS.
For experiment [8], the system named is SK-MEL-5 melanoma.

SMILES strings stand for the structures.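 Interpolation was linear, between the two tested concentrations surrounding the appropriate level; five concentrations were tested over 48 hours in 96-well plates. GI50 marks 50% less growth. The concentration for full growth arrest is given as TGI.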

As for `NCCCC(=O)Nc1ccncc1`, the GI50 in experiment [1], in experiment [2], in experiment [3], in experiment [4], in experiment [5] and in experiment [6] was more than 100 µM throughout. For the same molecule, the GI50 in experiment [7] and in experiment [8] was more than 100 µM in each case. Further, the TGI in experiment [1], in experiment [2], in experiment [3], in experiment [4], in experiment [5] and in experiment [6] was more than 100 µM throughout. The TGI in experiment [7] and in experiment [8] was more than 100 µM in each case.
As to `COc1c(C)c2c(c(O)c1C/C=C(\C)CCC(=O)OCCN1CCOCC1)C(=O)OC2`, the GI50 was 0.27 µM in experiment [1]; 0.29 µM in experiment [2]; 0.581 µM in experiment [3]; 0.0823 µM in experiment [4]; 2.09 µM in experiment [5]; 0.532 µM in experiment [6]. Also, the GI50 in experiment [7] is 0.323 µM; in experiment [8], 0.383 µM. The TGI in experiment [1], in experiment [2], in experiment [3], in experiment [4], in experiment [5] and in experiment [6] was more than 100 µM throughout. Moreover, the TGI in experiment [7] and in experiment [8] was more than 100 µM throughout.
As for `CCCc1ccc(S(=O)(=O)N[C@H]2CC[C@H]3[C@@H]4CCc5cc(O)ccc5[C@H]4CC[C@]23C)cc1`, the GI50 in experiment [1] is 3.76 µM; in experiment [2], 3.21 µM; in experiment [3] it was 1.57 µM; in experiment [4] it was 2.54 µM; in experiment [5] it was 2.06 µM; in experiment [6], 3.44 µM. The GI50 in experiment [7] is 3.06 µM; in experiment [8], 1.63 µM. Also, the TGI was found to be 14.3 µM in experiment [1]; 10.3 µM in experiment [2]; 3.15 µM in experiment [3]; 6.41 µM in experiment [4]; 4.44 µM in experiment [5]; 13.4 µM in experiment [6]. The TGI came out at 10.9 µM in experiment [7] and 3.01 µM in experiment [8].
On to `CCCCCNC(=O)[C@@H]1CCCN2C(=O)CC[C@H](NC(=O)[C@H](Cc3ccc(OP(=O)(O)O)cc3)NC(C)=O)C(=O)N12`, for which the GI50 in experiment [1], in experiment [2], in experiment [3], in experiment [4], in experiment [5] and in experiment [6] was more than 25 µM each time. Moreover, the GI50 in experiment [7] and in experiment [8] was more than 25 µM each time. Besides, the TGI in experiment [1], in experiment [2], in experiment [3], in experiment [4], in experiment [5] and in experiment [6] was more than 25 µM each time. Moreover, the TGI in experiment [7] and in experiment [8] was more than 25 µM each time.
Regarding `CCN(CC)CCOc1ccc(Nc2ncc3cc(-c4ccc(O)cc4)c(=O)n(C)c3n2)cc1`, the GI50 is 0.0803 µM in experiment [1]; 1.27 µM in experiment [2]; 4.61 µM in experiment [3]; 3.77 µM in experiment [4]; 10.7 µM in experiment [5]; 1.19 µM in experiment [6]. Moreover, the GI50 is 13.9 µM in experiment [7] and 14.8 µM in experiment [8]. Further, the TGI amounted to 15.9 µM in experiment [1]; 7.12 µM in experiment [2]; 22.6 µM in experiment [3]; 8.85 µM in experiment [4]; 30.8 µM in experiment [5]; 20.9 µM in experiment [6]. Besides, the TGI worked out at 30.4 µM in experiment [7] and 31 µM in experiment [8].
On to `CN(C)NC1=NS(=O)(=O)c2cc3c(cc2S1)N(N(C)C)C(=O)c1cc2c(cc1N(N(C)C)C3=O)SC(NN(C)C)=NS2(=O)=O`, for which the TGI in experiment [1], in experiment [2], in experiment [3], in experiment [4], in experiment [5] and in experiment [6] was more than 10 µM throughout. Moreover, the TGI in experiment [7] and in experiment [8] was more than 10 µM in each case.
In the case of `O=[N+]([O-])c1ccc(-c2nc(N(CCO)CCO)c3ccccc3n2)o1`, the GI50 is 0.151 µM in experiment [1]; 0.143 µM in experiment [2]; 0.216 µM in experiment [3]; 0.0537 µM in experiment [4]; 0.562 µM in experiment [5]; 0.211 µM in experiment [6]. The GI50 is 0.192 µM in experiment [7] and 0.112 µM in experiment [8]. Moreover, the TGI in experiment [1] came to 0.45 µM; in experiment [2], 0.316 µM; in experiment [3], 1.05 µM; in experiment [4], 0.38 µM; in experiment [5], 5.1 µM; in experiment [6], 1.52 µM. For the same molecule, the TGI in experiment [7] came out at 1.03 µM; in experiment [8], 0.244 µM.
`O=C1C(=Cc2ccco2)C(=O)C2CCCCC12` (stereo not drawn): the TGI in experiment [1], in experiment [2], in experiment [3], in experiment [4], in experiment [5] and in experiment [6] was more than 100 µM in each case. Further, the TGI in experiment [7] and in experiment [8] was more than 100 µM throughout.
On to `CC1(C)NCCC[C@]2(C)[C@H]3C=CC4=C5C[C@](C)(CO)CC[C@]5(C)CC[C@@]4(C)[C@]3(C)CC[C@@H]12`, for which the GI50 in experiment [1] was 4.08 µM; in experiment [2] it was 3.91 µM; in experiment [3], 4 µM; in experiment [4], 4.17 µM; in experiment [5], 12.4 µM; in experiment [6], 3.27 µM. Moreover, the GI50 in experiment [7] was 2 µM; in experiment [8], 2.14 µM. The TGI in experiment [1] came to 14.8 µM; in experiment [2] it was 14.8 µM; in experiment [3] it was 16.9 µM; in experiment [4], 15.2 µM; in experiment [5], 25.3 µM; in experiment [6], 11.6 µM. Moreover, the TGI in experiment [7] worked out at 4.04 µM; in experiment [8], 4.94 µM.

The values are drawn from PubChem BioAssay (NCI).
